Measurements taken from paper PMC6522510 (Nature Communications, 2019).
Where a name gives a salt, the structure may show the parent alone. Read-outs that look alike come from different tables or passages of the source. Numbered stars: 1 amine (or outer) side, 2 acyl side, 3 side chain; on linkers, the order of the positions; unused ones are H or OH. Square brackets hold non-standard residues; d marks the D form. Peptide text beside a SMILES is read from it. Nle = CCCC[C@H](N)C(=O)O; CO = O=C([*:1])[*:2]

Legend:
Parameters in all cases: species or system AML cell lines (8); Primary HTS, single concentration about 10 uM, Cell Titer Glo viability; log10 luminescence, per cent inhibition relative to cycloheximide control
Conditions in all cases: 72 h, relative to cycloheximide control, log10 luminescence, inhibitor
[1] = tested on: M07e
[2] = tested on: ML-2
[3] = tested on: U937
[4] = tested on: MOLM-13
[5] = tested on: CHRF288-11
[6] = tested on: CMK
[7] = tested on: CMS
[8] = tested on: MV4-11

SMILES	M07e %inh [1] [%]	ML-2 %inh [2] [%]	U937 %inh [3] [%]	MOLM-13 %inh [4] [%]	CHRF288-11 %inh [5] [%]	CMK %inh [6] [%]	CMS %inh [7] [%]	MV4-11 %inh [8] [%]	M07e %inh ([1]; M07e %inh, 10 µM) [%]	ML-2 %inh ([2]; ML-2 %inh, 10 µM) [%]	U937 %inh ([3]; U937 %inh, 10 µM) [%]	MOLM-13 %inh ([4]; MOLM-13 %inh, 10 µM) [%]	CHRF288-11 %inh ([5]; CHRF288-11 %inh, 10 µM) [%]	CMK %inh ([6]; CMK %inh, 10 µM) [%]	CMS %inh ([7]; CMS %inh, 10 µM) [%]	MV4-11 %inh ([8]; MV4-11 %inh, 10 µM) [%]
CN1CCN(CCc2cccc(C(=O)c3cnn(-c4ccc(F)cc4)c3N)c2)CC1 [SJ000581170-1]	1.993	2.973	7.701	4.249	-2.499	6.346	1.769	3.349								
Cn1c(=O)c(Oc2ccccc2)cc2cnc(NC3CCOCC3)nc21 [SJ000581171-1]	1.8	2.493	5.834	4.705	9.708	8.741	6.487	4.76								
Nc1c(C(=O)c2cccc(-c3ccncc3)c2)cnn1-c1ccc(F)cc1 [SJ000581172-1]	6.562	3.419	13.25	5.84	-2.059	6.56	2.678	2.351								
Cc1[nH]nc2c1N=C(c1ccccc1Cl)c1cc([N+](=O)[O-])ccc1N2 [SJ000581173-1]	57.3	56.78	91.37	62.4	37.73	116.1	91.81	86.62								
Nc1c(C(=O)c2ccc(C#CCN3CCOCC3)cc2)cnn1-c1ccc(F)cc1 [SJ000581175-1]	-0.05766	-0.5007	8.015	6.812	-0.8034	5.964	1.749	6.7								
CNCCCn1cc(C2=C(c3cn(C)c4ccccc34)C(=O)NC2=O)c2ccccc21 [SJ000581176-1]	23.08	2.284	9.304	86.21	23.82	37.79	6.195	44.21								
CNc1ncc2cc(Oc3ccc(F)cc3F)c(=O)n(C)c2n1 [SJ000581177-1]	-0.008012	0.6187	2.229	3.528	-5.721	4.145	-2.096	2.766								
COc1cccc(F)c1C(=O)c1cnc(NC2CCN(S(C)(=O)=O)CC2)nc1N [SJ000581178-1]	26.23	11.75	27.27	39.82	12.21	27.9	16.64	20.51								
CCCC[C@@H](C=O)NC(=O)[C@H](CC(C)C)NC(=O)OCc1ccccc1 [SJ000755074-1, CALPEPTIN]									0.9114	-0.6331	2.282	2.613	18.64	-0.01297	3.296	4.895
CCCC[C@@H](C=O)NC(=O)[C@H](CC(C)C)NC(=O)OCc1ccccc1 [SJ000755074-2, CALPEPTIN]									2.133	0.3376	3.349	5.31	27.98	-0.8705	2.144	8.208
CNC(=O)[C@H](Cc1c[nH]c2ccccc12)NC(=O)[C@@H](CC(=O)NO)CC(C)C [SJ000755078-1, GM 6001 | ILOMASTAT (GM6001, GALARDIN)]	-0.3296	-0.512	9.818	3.013	9.385	-1.76	-0.9664	1.237								
CCCCNC(=O)[C@@H]1Cc2ccccc2N1C(=O)[C@@H](N)CC [SJ000772394-1, BUTABINDIDE OXALATE]	-2.465	-0.1457	2.937	0.241	-4.064	2.146	0.61	-1.569								
CC(C)[C@H](NS(=O)(=O)c1ccc(-c2ccc(Br)cc2)cc1)C(=O)O [SJ000772395-1, PD 166793]	-2.219	-0.8645	3.907	0.2317	2.843	1.088	-2.252	-0.00905								
CCCC[C@@H](C=O)NC(=O)[C@H](CC(C)C)NC(=O)[C@H](CC(C)C)NC(C)=O [SJ000772397-1, MG 101 | ALLN] (Ac-Leu-Leu-[Nle]-aldehyde)	121	57.14	52.66	102.2	140.2	126.5	98.27	82.08								
Cc1ccc(/C=C2\CNC/C(=C\c3ccc(C)cc3)C2=O)cc1 [SJ000772404-1, NSC 632839 HYDROCHLORIDE]	129.2	61.57	84.59	99.63	82.45	116.6	103.5	77.36								
N#Cc1ccc(NCCNCC(=O)N2CCC[C@H]2C#N)nc1 [SJ000772405-1, NVP DPP 728 DIHYDROCHLORIDE]	-0.0114	-1.409	-2.969	-0.2952	-4.67	-0.003306	0.6231	-0.757								
O=C(O)Cc1cccc2c(=O)c([N+](=O)[O-])c(-c3ccccc3[N+](=O)[O-])oc12 [SJ000772406-1, AMINOPEPTIDASE N INHIBITOR]	-0.1255	1.312	-3.753	-3.246	5.038	-2.215	-0.7017	-1.986								
CC(C)[C@H](NC(=O)[C@H](CCCNC(=N)N)NC(=O)N[C@@H](Cc1ccccc1)C(=O)O)C(=O)N[C@H](C=O)CCCNC(=N)N [SJ000772410-1, ANTIPAIN, DIHYDROCHLORIDE] ({Phe-CO}-Arg-Val-Arg-aldehyde)	-0.5062	0.8211	-3.748	-3.916	4.85	-5.865	2.317	-1.834								
CNC(=O)[C@@H](NC(=O)[C@H](CC(C)C)[C@H](O)C(=O)NO)C(C)(C)C [SJ000772411-1]									-0.5084	1.691	2.038	2.673	14.63	-3.077	-1.756	-4.036
